Measurements published in article PMC7139549, “TLD1433 Photosensitizer Inhibits Conjunctival Melanoma Cells in Zebrafish Ectopic and Orthotopic Tumour Models” (Cancers, 2020).

Test system: CRMM2 cells injected behind the eye (RO) of zebrafish embryos
Experiment: Zebrafish orthotopic CM tumour model, CRMM2
Assay type: in vivo, Zebrafish (Danio rerio)
Settings: for PI (Fluorescence Intensity) / PI (Tumour Area) / Relative Tumour Burden as Measured by Fluorescence Intensity / Tumour Area: CRMM2, Orthotopic Model; for PI (Fluorescence Intensity) / PI (Tumour Area): 0 vs 114 J.cm^−2
Description: The zebrafish ectopic conjunctival melanoma tumour model has been described previously. In this model, around 200 fluorescent CM cells are injected into the Duct of Cuvier at 2 dpf, and then disseminate through the blood circulation and grow in the head and tail. To establish the orthotopic tumour model, around 100 red, (td)Tomato fluorescent CRMM1 or CRMM2 cells were injected RO at 2 dpf into tg(Fli:GFP/Casper), endothelial reporter transgenic zebrafish with green fluorescent vasculature and examined by fluorescent microscopy at day 1 and 4 after engraftment (Figure 6A). Tumour expansion at the injection site was measured as fluorescence intensity and tumour area.
For cancer cell injection, two days post-fertilization (dpf), dechorionated zebrafish embryos were anaesthetized with 0.003% tricaine (Sigma) and plated on a 10 cm Petri dish covered with 1.5% of solidified agarose. CRMM1 and CRMM2 cells were suspended in PBS containing 2% polyvinylpyrrolidone (PVP; Sigma-Aldrich) with a concentration of 50,000 cells/µL and loaded into borosilicate glass capillary needles (1 mm O.D. × 0.78 mm I.D.; Harvard Apparatus). In the ectopic model, 200 (td)Tomato fluorescent CM cells were injected into the Duct of Cuvier or at 2 dpf, which led to dissemination through the blood circulation and outgrowth in the head and tail. In orthotopic tumour model, 100 (td)Tomato fluorescent CRMM1 or CRMM2 cells were injected RO in 2 dpf embryos using a Pneumatic Picopump and a manipulator (WPI). After injection, the embryos were incubated in a 34 °C incubator. Images were acquired at 1-, 2- and 4-days post injection (dpi) with a Leica M165 FC stereo fluorescence microscope. Tumor growth was quantified by calculating the total fluorescence intensity and area with the ZF4 pixel counting program (Leiden). Each experiment was performed at least 3 times with a group size of >30 embryos.
Fluorescent CRMM1 and CRMM2 cells were injected at 2 dpf into the Duct of Cuvier (ectopic model) and behind the eye (orthotopic model) and TLD1433 was delivered by WA, IV and RO administration with or without a light treatment as described in 4.8. For the WA administration, the 4.6 nM TLD1433 solution was added to the tumour cells injected zebrafish at 2.5, 3.5, 4.5, 5.5 dpf and maintained for 12 h. At 3, 4, 5, 6 dpf, the fish water was refreshed, and after 1 h, embryos were exposed to green light for 90 min (21 mW/cm^2, 114 J/cm^2, 520 nm). For the IV and RO administration, 1 nL of 2.3 mM TLD1433 solution was injected via the dorsal vein or the RO site at 3, 4, 5, 6 dpf. After 1 h interval, the embryos were exposed to green light for 90 min (21 mW/cm^2, 114 J/cm^2, 520 nm). After treatment, the embryos images were acquired with a Leica M165 FC stereo fluorescence microscope. Tumor growth was quantified by calculating the total fluorescence intensity and area with the ZF4 pixel counting program (Leiden). Each experiment was performed at least 3 times with a group size of >30 embryos.

[1] = Intravenous (1 nL of 2.3 mM), Light Dose 0 J.cm^−2, vs control dark group (100%)
[2] = Intravenous (1 nL of 2.3 mM), Light Dose 114 J.cm^−2, vs control dark group (100%)
[3] = Water (4.6 nM), Light dose 0 J.cm^−2, vs control dark group (100%)
[4] = Water (4.6 nM), Light dose 114 J.cm^−2, vs control dark group (100%)
[5] = CRMM2, orthotopic model, RO 2.3 mM, green light 114 J.cm^−2

For `Cc1ccnc(-c2cc(C)ccn2)c1.Cc1ccnc(-c2cc(C)ccn2)c1.[Cl-].[Cl-].[Ru+2].c1csc(-c2ccc(-c3ccc(-c4nc5c6cccnc6c6ncccc6c5[nH]4)s3)s2)c1` [TLD1433], the “PI (Fluorescence Intensity)” value (Intravenous (1 nL of 2.3 mM)) was 1.0, the “PI (Tumour Area)” value (Intravenous (1 nL of 2.3 mM)) was 1.1 and the “Relative Tumour Burden as Measured by Fluorescence Intensity” value (“Relative Tumour Burden as Measured” for short) [1] was 98%. For the same compound, the “Tumour Area” value [1] was 97%, the “Relative Tumour Burden as Measured” value [2] was 95% and the “Tumour Area” value [2] was 93%. For the same compound, the “PI (Tumour Area)” value (Retro orbital (1 nL of 2.3 mM)) was 3.4, the “Tumour Area” value (Retro orbital (1 nL of 2.3 mM), Light dose 0 J.cm^−2, vs control dark group (100%)) was 99% and the “Tumour Area” value (Retro orbital (1 nL of 2.3 mM), Light dose 114 J.cm^−2, vs control dark group (100%)) was 29%. For the same compound, the “PI (Fluorescence Intensity)” value (Retro-orbital (1 nL of 2.3 mM)) was 2.2, the “Relative Tumour Burden as Measured” value (Retro-orbital (1 nL of 2.3 mM), Light Dose 0 J.cm^−2, vs control dark group (100%)) was 100% and the “Relative Tumour Burden as Measured” value (Retro-orbital (1 nL of 2.3 mM), Light Dose 114 J.cm^−2, vs control dark group (100%)) was 45%. The “PI (Fluorescence Intensity)” value (Water (4.6 nM)) was 0.92, the “PI (Tumour Area)” value (Water (4.6 nM)) was 1.1 and the “Relative Tumour Burden as Measured” value [3] was 96%. The “Tumour Area” value [3] was 104%, the “Relative Tumour Burden as Measured” value [4] was 104% and the “Tumour Area” value [4] was 95%. The diminished fluorescence intensity [5] was 55%, the diminished tumour area [5] was 71% and the “effect on tumour burden (in words)” value (CRMM2, orthotopic model, WA at the MTD (4.6 nM), light 114 J.cm^−2) was “did not inhibit tumour burden”.
